“Also recorded” adds a separate entry of the source. No end group written: not given here. *: point of attachment. Octanoyl = CCCCCCCC(=O)*
Assays:
GH deficient subjects [1] = experiment: Serum insulin concentrations after i.v. AG, UAG, AG+GH or AG+UAG, before and after a standard lunch; format: in vivo, human; settings: for effect on serum insulin levels after a standard lunch: GH deficient subjects; for effect on serum insulin levels: first two hours after i.v. administration, before lunch, fasting
Description: (§1) Eight male subjects with a pituitary insufficiency but otherwise healthy, were asked to participate (range 21-69 yrs (age 55±10; mean±standard error of mean or SEM)) and a body mass index of 29.4±2.8 (mean±SEM). […] All subjects were admitted at the Clinical Research Unit. No alcoholic beverages were allowed from the day prior to admission until the end of the study. Also, all subjects were asked to skip the administration of their GH replacement every night prior to each of the 5 admission days. All subjects gave their written informed consent to participate in the study, which had been approved the hospital's Ethical Committee.
(§2) All subjects underwent the following five testing sessions, each after an overnight fast, in random order and at least 1 week apart: 1) placebo (saline 3 ml iv). 2) acylated ghrelin (Neosystem S.A.; Strasbourg, France; 1.0 μg/kg iv, using a bacterial filter system). 3) unacylated ghrelin (Neosystem S.A.; Strasbourg, France; 1.0 μg/kg iv, using a filter system). 4) acylated ghrelin (1.0 μg/kg iv) but this time after the normal GH replacement dose was administered 15 minutes before. 5) acylated ghrelin in combination with unacylated ghrelin (both 1.0 μg/kg iv, but via separate injection sites). All tests started in the morning at 09:30 am, 30′ after one or two indwelling catheters had been placed into an antecubital vein, kept patent by slow infusion of isotonic saline.
(§3) This meal was taken by all subjects all tests days.
(§4) Insulin was assessed with a radioimmunoassay (Medgenix Diagnostics, Brussels, Belgium; intra- and interassay coefficient of variation (CV) 13.7 and 8.0% respectively). Glucose was assessed with an automatic hexokinase method (Roche, Almere, The Netherlands). Free fatty acids were determined with an enzymatic […] method (Wako Chemicals GmbH, Neuss, Germany; intra- and interassay CV 1.1 and 4.1% respectively).
(§5) Differences between the several study days were calculated, using a Newman-Keuls Multiple Comparison one-way ANOVA test (GraphPad Prism 4 for Windows; GraphPad Inc. USA). P-values <0.05 were considered significant. Areas under the curve were calculated using the trapezoid rule.

GH deficient subjects [2] = experiment: Serum free fatty acid concentrations after i.v. AG, UAG, AG+GH or AG+UAG, before and after a standard lunch; format: in vivo, human; settings: compounds administered 2-6 hrs before
Description: as §1, with “Committee. […]” for “Committee.”
as §4
(§6) Differences between the several study days were calculated, using a Newman-Keuls Multiple Comparison one-way ANOVA test (GraphPad Prism 4 for Windows; GraphPad Inc. USA). […] Areas under the curve were calculated using the trapezoid rule.

GH deficient subjects [3] = experiment: Serum glucose concentrations after i.v. AG, UAG, AG+GH or AG+UAG, before and after a standard lunch; format: in vivo, human; settings: for effect on serum glucose levels after a standard lunch: GH deficient subjects; for effect on serum glucose levels: first two hours after i.v. administration, before lunch, fasting
Description: as §1, §2, §3, §4, §5

GH deficient subjects [4] = experiment: Insulin sensitivity judged from areas under the curve of glucose, insulin and FFA (FIG. 8, FIG. 9); format: in vivo, human
Description: Eight male subjects with a pituitary insufficiency but otherwise healthy, were asked to participate (range 21-69 yrs (age 55±10; mean±standard error of mean or SEM)) and a body mass index of 29.4±2.8 (mean±SEM). […] All subjects were admitted at the Clinical Research Unit. No alcoholic beverages were allowed from the day prior to admission until the end of the study. Also, all subjects were asked to skip the administration of their GH replacement every night prior to each of the 5 admission days. All subjects gave their written informed consent to participate in the study, which had been approved the hospital's Ethical Committee. […] Insulin was assessed with a radioimmunoassay (Medgenix Diagnostics, Brussels, Belgium; intra- and interassay coefficient of variation (CV) 13.7 and 8.0% respectively). Glucose was assessed with an automatic hexokinase method (Roche, Almere, The Netherlands). Free fatty acids were determined with an enzymatic […] method (Wako Chemicals GmbH, Neuss, Germany; intra- and interassay CV 1.1 and 4.1% respectively). Differences between the several study days were calculated, using a Newman-Keuls Multiple Comparison one-way ANOVA test (GraphPad Prism 4 for Windows; GraphPad Inc. USA). […] Areas under the curve were calculated using the trapezoid rule.

[5] = Serum total and acylated ghrelin concentrations after i.v. bolus injection (radioimmunoassay); parameters: species or system human; settings: in vivo, iv
Description: as §1
All subjects underwent the following five testing sessions, each after an overnight fast, in random order and at least 1 week apart: 1) placebo (saline 3 ml iv). 2) acylated ghrelin (Neosystem S.A.; Strasbourg, France; 1.0 μg/kg iv, using a bacterial filter system). […]
Acylated and total ghrelin concentrations were measured, using a commercially available radioimmunoassay (Linco research Inc. Missouri, USA). […] The lowest level of ghrelin that can be detected by this assay is […] when using a 100 μl sample size. […]
as §6

GH secretion = settings: compared with Ghrelin-28; cited from earlier work
cloned cells = settings: cited from earlier work

Molecule	effect on serum insulin levels after a standard lunch (GH deficient subjects [1])	effect on serum insulin levels (GH deficient subjects [1])	effect on serum FFA levels after a standard lunch (GH deficient subjects [2])	effect on serum glucose levels after a standard lunch (GH deficient subjects [3])	effect on serum glucose levels (GH deficient subjects [3])	effect on serum glucose levels (GH deficient subjects [3]; listed as acylated ghrelin)	duration of decrease in insulin sensitivity after administration (GH deficient subjects [4]; after administration of acylated ghrelin)	effect on insulin sensitivity (GH deficient subjects [4]; period following lunch, AUC (FIG. 9))	effect on unacylated ghrelin levels [5]	effect on serum glucose levels (GH deficient subjects [3]; listed as unacylated ghrelin)	induction of GH secretion (GH secretion)	Ca2+ fluxes (cloned cells)
CCCCCCCC(=O)OC[C@H](NC(=O)[C@H](CO)NC(=O)CN)C(=O)N[C@@H](Cc1ccccc1)C(=O)N[C@@H](CC(C)C)C(=O)N[C@@H](CO)C(=O)N1CCC[C@H]1C(=O)N[C@@H](CCC(=O)O)C(=O)N[C@@H](Cc1cnc[nH]1)C(=O)N[C@@H](CCC(N)=O)C(=O)N[C@@H](CCCNC(=N)N)C(=O)N[C@H](C(=O)N[C@@H](CCC(N)=O)C(=O)N[C@@H](CCC(N)=O)C(=O)N[C@@H](CCCNC(=N)N)C(=O)N[C@@H](CCCCN)C(=O)N[C@@H](CCC(=O)O)C(=O)N[C@@H](CO)C(=O)N[C@@H](CCCCN)C(=O)N[C@@H](CCCCN)C(=O)N1CCC[C@H]1C(=O)N1CCC[C@H]1C(=O)N[C@@H](C)C(=O)N[C@@H](CCCCN)C(=O)N[C@@H](CC(C)C)C(=O)N[C@@H](CCC(N)=O)C(=O)N1CCC[C@H]1C(=O)N[C@@H](CCCNC(=N)N)C(=O)O)C(C)C [AG]	increased insulin levels the most	immediately increases glucose and insulin levels	significantly increased FFA levels after lunch, compared to placebo	increase serum glucose levels significantly	induces a significant hyperglycemia	immediately increases glucose and insulin levels	at least 6 hours	decreases insulin sensitivity, compared to placebo	induces an acute increase in unacylated ghrelin levels	–	–	–
CC(C)C[C@H](NC(=O)[C@H](CCCCN)NC(=O)[C@H](C)NC(=O)[C@@H]1CCCN1C(=O)[C@@H]1CCCN1C(=O)[C@H](CCCCN)NC(=O)[C@H](CCCCN)NC(=O)[C@H](CO)NC(=O)[C@H](CCC(=O)O)NC(=O)[C@H](CCCCN)NC(=O)[C@H](CCCNC(=N)N)NC(=O)[C@H](CCC(N)=O)NC(=O)[C@H](CCC(N)=O)NC(=O)[C@@H](NC(=O)[C@H](CCCNC(=N)N)NC(=O)[C@H](CCC(N)=O)NC(=O)[C@H](Cc1c[nH]cn1)NC(=O)[C@H](CCC(=O)O)NC(=O)[C@@H]1CCCN1C(=O)[C@H](CO)NC(=O)[C@H](CC(C)C)NC(=O)[C@H](Cc1ccccc1)NC(=O)[C@H](CO)NC(=O)[C@H](CO)NC(=O)CN)C(C)C)C(=O)N[C@@H](CCC(N)=O)C(=O)N1CCC[C@H]1C(=O)N[C@@H](CCCNC(=N)N)C(=O)O [UAG]	increased insulin levels the most, followed UAG	This does not occur	could not be observed	increase serum glucose levels significantly; also recorded: increases serum glucose levels significantly more than AG	to a lesser extent, UAG, induces a significant hyperglycemia	–	–	–	–	This does not occur	–	–
Gly-Ser-[octanoyl]Ser-Phe-Leu-Ser-Pro-Glu-His-Gln-Arg-Val-Gln-Arg-Lys-Glu-Ser-Lys-Lys-Pro-Pro-Ala-Lys-Leu-Gln-Pro-Arg (GSS(Octanoyl)FLSPEHQRVQRKESKKPPAKLQPR; listed as Homo sapiens) [des Gln-14 ghrelin]	–	–	–	–	–	–	–	–	–	–	induces GH secretion with similar potency as Ghrelin-28	elicits Ca^2+ fluxes in cloned cells

From patent US7825090B2, “Use of ghrelin and unacylated ghrelin compositions for treating insulin resistance” (Alizé Pharma SAS, priority 2004, dated 2010)
